This note sets out measurements from patent publication US8603493B2, “Carbosilane dendrimers, preparation method thereof and use of same” (Dendrico, S.L., priority 2005, dated 2013).

The structures appear in SMILES notation.

The nature of data set [1]: Dendrimer-drug binding test (polyacrylamide gel delay), methotrexate. As to conditions: dendrimer 100 μM, charge ratios 1+/1− to 8+/1−, 37° C., 1 hour. As for the experimental part:
(§1) The drugs chosen to perform the tests, all with at least one negative charge at physiological pH, were: • Methotrexate (sodium salt): • 1 charge (−) • Supplying laboratory: Almirall • Presentation: 25 mg/ml solution • Excipients: NaCl, NaOH, HCl, double-distilled H2O • Heparin (sodium salt) • Several charges (−) • Supplying laboratory: Rovi • Presentation: 10 mg/ml solution (1000 U) • Excipients: methyl p-oxybenzoate, propyl p-oxybenzoate, NaCl, double-distilled H2O • Insulin (recombinant human insulin) • 4 charges (−) • Supplying laboratory: Novo Nordisk • Product trade name: Actrapid • Presentation: 3.5 mg/ml solution (100 U) • Excipients: ZnCl2, HCl, NaOH, double-distilled H2O
(§2) The determination of the bond and complex formation between the dendrimer and the drug was performed by evaluating the delay in the polyacrylamide gel of the dendrimer bound to drug with respect to the free dendrimer: • Complex formation: It is performed in a final volume of the mixture of 30 μl, which is the maximum volume to load in the gel. To do this, one starts from the necessary quantity of dendrimer that provides a perfectly identifiable band by staining with silver nitrate in the gel once the electrophoresis has been carried out: 20 μl of a 100 μM solution, which corresponds to […] molecules. The drug is added in the 10 μl at different concentrations to produce the chosen (+) and (−) charge ratios, also determining the quantity of drug molecules present in the mixture. An incubation of said mixture was performed at 37° C. during 1 hour to give time for a more thermodynamically stable complex to form, although more time may be needed for its formation. Each complex is performed in duplicate. • Electrophoresis and gel staining: The gels used were 7.5% polyacrylamide/bisacrylamide, prepared with 1.5M Tris pH 8.8. Each electrophoresis was carried out at 90 volts during 4 hours, after which the gel was stained with silver nitrate and photographed. […]

The subject of data set [2] is peripheral blood mononuclear cells (PBMC). Briefly: Visual examination of PBMC incubated with dendrimers. In kind it is cell-based, human. As to conditions: for visual examination of PBMC: 48 hours. How it is done:
The toxicity of dendrimers IM8, IM16, ClNH4, NN, Phe and the commercial controls SF (Superfect) and G4 were tested. Different quantities were taken of each one of them so that the final concentrations with which the cells were incubated were 1 μM, 5 μM, 10 μM, 20 μM and 100 μM.
The blood came from adult donors or the umbilical cord of health newborns. Said blood was diluted ½ with PBS and it was centrifuged in a Ficoll gradient. After said centrifugation, the PBMC halo was recovered and two subsequent washing-centrifuging cycles were carried out. The resulting PBMC were resuspended in complete culture medium with 10% FCS, antibiotics and glutamine.
100 μl of 10% complete medium of foetal calf serum, antibiotics and glutamine were added to a volume of 60 μl of RPMI with the corresponding dendrimer tested. 160 μl were then added to the cells seeded in 340 μl, completing a final volume of 500 μl. The cells were incubated in this way for 48 hours and then the effect of the incubation with the dendrimers was evaluated by its visual examination and by the evaluation of the mitochondrial activity.

Data set [3] can be described thus: Dendrimer-drug binding test (polyacrylamide gel delay), heparin. As to conditions: dendrimer 100 μM, heparin 10, 1, 0.5, 0.1 U, 37° C., 1 hour. How it is done:
as §1, §2

Data set [4] deals with T1, Insulin (recombinant human insulin) (Homo sapiens, UniProt P01308).
T1 construct: Despite having its molecular weight (5825 g/mol) and establishing an average of 4 (−) charges; purchased Novo Nordisk Actrapid (trade name; no catalogue number given)
T1 sequence (P01308 25-54 limits assumed): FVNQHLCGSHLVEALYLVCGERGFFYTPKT
T1 sequence (P01308 90-110 limits assumed): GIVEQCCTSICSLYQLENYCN
Briefly: Dendrimer-drug binding test (polyacrylamide gel delay), insulin. As to conditions: dendrimer 100 μM, insulin 1, 0.5, 0.1, 0.05 U, 37° C., 1 hour. As for the experimental part:
as §1, §2

As for `C[N+](C)(C)CCO[Si](C)(CCC[Si](C)(CCC[Si](CCC[Si](C)(CCC[Si](C)(OCC[N+](C)(C)C)OCC[N+](C)(C)C)CCC[Si](C)(OCC[N+](C)(C)C)OCC[N+](C)(C)C)(CCC[Si](C)(CCC[Si](C)(OCC[N+](C)(C)C)OCC[N+](C)(C)C)CCC[Si](C)(OCC[N+](C)(C)C)OCC[N+](C)(C)C)CCC[Si](C)(CCC[Si](C)(OCC[N+](C)(C)C)OCC[N+](C)(C)C)CCC[Si](C)(OCC[N+](C)(C)C)OCC[N+](C)(C)C)CCC[Si](C)(OCC[N+](C)(C)C)OCC[N+](C)(C)C)OCC[N+](C)(C)C.[I-].[I-].[I-].[I-].[I-].[I-].[I-].[I-].[I-].[I-].[I-].[I-].[I-].[I-].[I-].[I-]` [IM16, 2G-[Si(OCH2CH2NMe3^+I^−)2]8], the “dendrimer-methotrexate complex formation (delay in gel)” value in data set [1] is “complex is not formed”. The “visual examination of PBMC” value in data set [2] (1 μM) was “O.K”; in data set [2] (5 μM), “O.K”; in data set [2] (10 μM), “Cell aggregates +”. Further, the “dendrimer-heparin complex formation (delay in gel)” value in data set [3] is listed as “complex is formed”. Besides, in data set [4], the “dendrimer-insulin complex formation (delay in gel)” value is listed as “complex is formed”.

With `C[N+](C)(C)CCO[Si](C)(C)CCC[Si](C)(CCC[Si](CCC[Si](C)(CCC[Si](C)(C)OCC[N+](C)(C)C)CCC[Si](C)(C)OCC[N+](C)(C)C)(CCC[Si](C)(CCC[Si](C)(C)OCC[N+](C)(C)C)CCC[Si](C)(C)OCC[N+](C)(C)C)CCC[Si](C)(CCC[Si](C)(C)OCC[N+](C)(C)C)CCC[Si](C)(C)OCC[N+](C)(C)C)CCC[Si](C)(C)OCC[N+](C)(C)C.[I-].[I-].[I-].[I-].[I-].[I-].[I-].[I-]` [IM8, 2G-[Si(OCH2CH2NMe3^+I^−)]8], the “visual examination of PBMC” value in data set [2] (1 μM) and in data set [2] (5 μM) was “O.K” in each case.

With `C[Si](C)(CCCN)CCC[Si](C)(CCC[Si](C)(C)CCCN)CCC[Si](CCC[Si](C)(CCC[Si](C)(C)CCCN)CCC[Si](C)(C)CCCN)(CCC[Si](C)(CCC[Si](C)(C)CCCN)CCC[Si](C)(C)CCCN)CCC[Si](C)(CCC[Si](C)(C)CCCN)CCC[Si](C)(C)CCCN.Cl.Cl.Cl.Cl.Cl.Cl.Cl.Cl` [ClNH4, 2G-[Si(CH2)3NH3^+Cl^−]8], the “visual examination of PBMC” value in data set [2] (1 μM) is given as “O.K”; in data set [2] (5 μM), “Aggregates +”.

Take `CN(CCO[Si](C)(C)CCC[Si](C)(CCC[Si](CCC[Si](C)(CCC[Si](C)(C)OCCN(C)CC[N+](C)(C)C)CCC[Si](C)(C)OCCN(C)CC[N+](C)(C)C)(CCC[Si](C)(CCC[Si](C)(C)OCCN(C)CC[N+](C)(C)C)CCC[Si](C)(C)OCCN(C)CC[N+](C)(C)C)CCC[Si](C)(CCC[Si](C)(C)OCCN(C)CC[N+](C)(C)C)CCC[Si](C)(C)OCCN(C)CC[N+](C)(C)C)CCC[Si](C)(C)OCCN(C)CC[N+](C)(C)C)CC[N+](C)(C)C.[I-].[I-].[I-].[I-].[I-].[I-].[I-].[I-]` [NN, 2G-[Si(O(CH2)2N(Me)(CH2)2NMe3^+I^−)]8]: the “dendrimer-methotrexate complex formation (delay in gel)” value in data set [1] is reported as “complex is formed”. For the same molecule, the “toxicity for the lymphocytes from the visual observation (comparison)” value in data set [2] was “least toxic”. In addition, the “visual examination of PBMC” value in data set [2] (1 μM) and in data set [2] (5 μM) was “O.K” in each case. For the same molecule, the “dendrimer-heparin complex formation (delay in gel)” value in data set [3] was “complex is formed”. Besides, in data set [4], the “dendrimer-insulin complex formation (delay in gel)” value is reported as “complex is formed”.

For `C[N+](C)(C)CCOc1cc(CO[Si](C)(C)CCC[Si](C)(CCC[Si](CCC[Si](C)(CCC[Si](C)(C)OCc2cc(OCC[N+](C)(C)C)cc(OCC[N+](C)(C)C)c2)CCC[Si](C)(C)OCc2cc(OCC[N+](C)(C)C)cc(OCC[N+](C)(C)C)c2)(CCC[Si](C)(CCC[Si](C)(C)OCc2cc(OCC[N+](C)(C)C)cc(OCC[N+](C)(C)C)c2)CCC[Si](C)(C)OCc2cc(OCC[N+](C)(C)C)cc(OCC[N+](C)(C)C)c2)CCC[Si](C)(CCC[Si](C)(C)OCc2cc(OCC[N+](C)(C)C)cc(OCC[N+](C)(C)C)c2)CCC[Si](C)(C)OCc2cc(OCC[N+](C)(C)C)cc(OCC[N+](C)(C)C)c2)CCC[Si](C)(C)OCc2cc(OCC[N+](C)(C)C)cc(OCC[N+](C)(C)C)c2)cc(OCC[N+](C)(C)C)c1.[I-].[I-].[I-].[I-].[I-].[I-].[I-].[I-].[I-].[I-].[I-].[I-].[I-].[I-].[I-].[I-]` [Phe, 2G-[Si(OCH2—(C6H3)-3,5-(OCH2CH2NMe3^+I^−)2)]8], the “toxicity for the lymphocytes from the visual observation (comparison)” value in data set [2] was “least toxic”. For the same molecule, the “visual examination of PBMC” value in data set [2] (1 μM) was “O.K”; in data set [2] (5 μM), “O.K”; in data set [2] (10 μM), “O.K”; in data set [2] (20 μM) it was “Few cells”; in data set [2] (100 μM), “Isolated cells”.
